Source: patent publication US4774381A, “Herbicide resistant tobacco” (E. I. Du Pont de Nemours and Company, priority 1985, dated 1988)

Assays:
[1] = test system: acetolactate synthase (ALS), Isolate 10 (S4/+) extract; experiment: ALS activity assay in cell extracts; type: biochemical, Nicotiana tabacum
Experimental: (§1) Cell suspension cultures of normal (H1) and homozygous mutant (Isolate 16) cell lines were washed in C1 liquid medium. After washing, cells were extracted in a 100 mM potassium phosphate buffer (pH 7.5) containing 0.5 mM MgCl2, 1 mM sodium pyruvate, 0.5 mM thiamine pyrophosphate, 10 micromolar flavine-adenine dinucleotide (FAD) and 10 percent (by volume) glycerol. Polyclar AT (BDH Chemicals Ltd) was added to a final concentration of 250 mg per gram fresh weight of tissue. After centrifugation at 27,000xg for 15 minutes at 4°, an equal volume of a saturated solution of amminium sulfate was added to the supernatant fraction. The resultant precipitate (representing a 0 to 50 percent ammonium sulfate fraction) was redissolved in 100 mM potassium phosphate buffer (pH 7.5) containing 0.5 mM MgCl2, 1 mM sodium pyruvate, and salts were removed by passage through a Sephadex G-25 (Pharmacia PD-10) column.
(§2) ALS activity was assayed in a total volume of 500 microliters containing 100 microliters of the column eluate, 65 mM potassium phosphate buffer (pH 7.5) containing 10 mM MgCl2, 40 mM sodium pyruvate, 250 micromolar thiamine pyrophosphate, 23 micromolar FAD, […] After incubation at 30° for 90 minutes, 250 microliters of 6N H2 SO4 was added to each assay tube, and the tubes were incubated at 55° for 10 minutes to terminate the enzymatic reaction and achieve complete conversion of acetolactate to acetoin. Acetoin content was then measured by a modification of the procedure described by Westerfield, J. Biol. Chem. 161:495 (1945). To each tube was added sequentially 100 microliters 50 percent NaOH, 150 microliters 0.5 percent creatine, and 150 microliters 5 percent alpha-napthol (in 2.5N NaOH). Color development was accelerated by incubation at 55° for 10 minutes. Tubes were then centrifuged, and the optical density was read at 530 nm. Background optical densities, which were subtracted from the optical density values of the reactions, were determined for each extract from parallel assays to which the enzyme extract was added after the addition of 6N H2 SO4. Protein concentrations were measured with Bio-Rad Protein Assay reagent with bovine serum albumin as a standard. Data points and specific activities, which are set forth below and in FIG. 2, represent the average values of at least three independent determinations. ALS activities are presented in FIG. 2 as percent activity in the absence of herbicide.
(§3) Responses to chlorsulfuron were determined for ALS activities in extracts of cells suspension cultures derived from nine individuals that differed with resepct to the S4 mutation. As described above, these individuals were produced by self-fertilization of an S4/+ heterozygote, and their genotypes were established by means of progeny analysis. Callus and plant phenotypes were determined by growth responses of cell cultures and seedlings, respectively, on herbicide-supplemented medium. […] In contrast, all individuals homozygous for the S4 mutation contained a highly resistant form of the enzyme. […] The correlation between both callus and plant phenotype and the response of ALS activity in vitro to the herbicide is both absolute and quantitative.

[2] = test system: acetolactate synthase (ALS), Isolate 23 (S4/+) extract; experiment: ALS activity assay in cell extracts; type: biochemical, Nicotiana tabacum
Experimental: as §1, §2, §3

## COc1nc(C)nc(NC(=O)NS(=O)(=O)c2ccccc2Cl)n1 [Chlorsulfuron, chlorsulfuron]
[1]; 10 ppb
  Uninhibited activity (%) in the Presence of Chlorsulfuron: 61%
[1]; 30 ppb
  Uninhibited activity (%) in the Presence of Chlorsulfuron: 52%
[1]; 100 ppb
  Uninhibited activity (%) in the Presence of Chlorsulfuron: 45%
[2]; 10 ppb
  Uninhibited activity (%) in the Presence of Chlorsulfuron: 64%
[2]; 30 ppb
  Uninhibited activity (%) in the Presence of Chlorsulfuron: 53%
[2]; 100 ppb
  Uninhibited activity (%) in the Presence of Chlorsulfuron: 46%
